ChEMBL document CHEMBL3227990, “Aminotetralins as narcotic antagonists. Synthesis and opiate-related activity of 1-phenyl-2-aminotetralin derivatives” (J Med Chem, 1979)

Key:
Mus musculus [1] = species: Mus musculus; experiment: Toxicity in mouse assessed as convulsant activity; assay type: organism-based; conditions: in vivo
Mus musculus [2] = species: Mus musculus; experiment: Inhibition of morphine-induced analgesia in mouse assessed as dose required for 50% antagonism of analgesia by tail flick test; assay type: functional
Mus musculus [3] = species: Mus musculus; experiment: Analgesic activity in mouse by hot plate test; assay type: functional

SMILES | Activity (Mus musculus [1]) | AD50 (Mus musculus [2]) | ED50 (Mus musculus [3]) [mg/kg]
CN(CC1CC1)[C@@H]1CCc2ccccc2[C@@]1(O)c1ccccc1.Cl | Toxic | >=30 mg kg-1 | –
CN1CC[C@]23c4c5ccc(O)c4O[C@H]2[C@@H](O)C=C[C@H]3[C@H]1C5 [MORPHINE] | – | – | 1.1
CO[C@@]1(c2ccccc2)c2ccccc2CC[C@H]1N(C)CC1CC1.Cl | – | 33.5 mg/kg | ≥ 50
CCC(=O)O[C@@]1(c2ccccc2)c2ccccc2CC[C@H]1N(C)CC1CC1.Cl | – | >=100 mg kg-1 | 17.8
